One assay concerns peptide-pulsed T2 cells. The experiment in a line: IFN-gamma ELISPOT assay of peptide specific CTL activity after in vitro CTL induction. Format: cell-based, human. The conditions noted are these: against peptide-pulsed T2 cells compared with control not pulsed; PBMCs of HLA-A*0201 positive donor; day 21. An excerpt: Monocyte-derived dendritic cells (DCs) were used as antigen-presenting cells (APCs) to induce cytotoxic T lymphocyte (CTL) responses against peptides presented on human leukocyte antigen (HLA). DCs were generated in vitro as described elsewhere (Nakahara S et al., Cancer Res 2003 Jul. 15, 63(14): 4112-8). Specifically, peripheral blood mononuclear cells (PBMCs) isolated from a normal volunteer (HLA-A*0201 positive) by Ficoll-Plaque (Pharmacia) solution were separated by adherence to a plastic tissue culture dish (Becton Dickinson) so as to enrich them as the monocyte fraction. The monocyte-enriched population was cultured in the presence of 1000 U/ml of granulocyte-macrophage colony-stimulating factor (R&D System) and 1000 U/ml of interleukin (IL)-4 (R&D System) in AIM-V Medium (Invitrogen) containing 2% heat-inactivated autologous serum (AS). After 7 days of culture, the cytokine-induced DCs were pulsed with 20 microgram/ml of each of the synthesized peptides in the presence of 3 microgram/ml of beta 2-microglobulin for 3 hrs at 37 degrees C. in AIM-V Medium. The generated cells appeared to express DC-associated molecules, such as CD80, CD83, CD86 and HLA class II, on their cell surfaces (data not shown). […]

In assay [1] the test system is target cells pulsed with the corresponding peptide (T2). The experiment in a line: IFN-gamma ELISA assay of established CTL line and CTL clone. Format: cell-based, human. On the procedure: CTLs were expanded in culture using the method similar to the one described by Riddell et al. (Walter E A et al., N Engl J Med 1995 Oct. 19, 333(16): 1038-44; Riddell S R et al., Nat Med 1996 February, 2(2): 216-23). A total of 5×10^4 CTLs were suspended in 25 ml of AIM-V/5% AS medium with 2 kinds of human B-lymphoblastoid cell lines, inactivated by Mitomycin C, in the presence of 40 ng/ml of anti-CD3 monoclonal antibody (Pharmingen). One day after initiating the cultures, 120 IU/ml of IL-2 were added to the cultures. The cultures were fed with fresh AIM-V/5% AS medium containing 30 IU/ml of IL-2 on days 5, 8 and 11 (Tanaka H et al., Br J Cancer 2001 Jan. 5, 84(1): 94-9; Umano Y et al., Br J Cancer 2001 Apr. 20, 84(8): 1052-7; Uchida N et al., Clin Cancer Res 2004 Dec. 15, 10(24): 8577-86; Suda T et al., Cancer Sci 2006 May, 97(5): 411-9; Watanabe T et al., Cancer Sci 2005 August, 96(8): 498-506).
The dilutions were made to have 0.3, 1, and 3 CTLs/well in 96 round-bottomed micro titer plate (Nalge Nunc International). CTLs were cultured with 1×10^4 cells/well of 2 kinds of human B-lymphoblastoid cell lines, 30 ng/ml of anti-CD3 antibody, and 125 U/ml of IL-2 in a total of 150 microliter/well of AIM-V Medium containing 5% AS. 50 microliter/well of IL-2 were added to the medium 10 days later so to reach a final concentration of 125 U/ml IL-2. […]

For assay [2], the system named is COS7 cells transfected with MYBL2 and HLA-A*0201. The experiment in a line: Specific CTL activity against target cells exogenously expressing MYBL2 and HLA-A*0201. Format: cell-based, African green monkey. The source says:
The cDNA encoding an open reading frame of target genes or HLA-A*0201 was amplified by PCR. The PCR-amplified product was cloned into expression vector. The plasmids were transfected into COS7, which is the target genes and HLA-A*0201-null cell line, using lipofectamine 2000 (Invitrogen) according to the manufacturer's recommended procedures. After 2 days from transfection, the transfected cells were harvested with versene (Invitrogen) and used as the stimulator cells (5×10^4 cells/well) for CTL activity assay.
The established CTL clone raised against MYBL2-A02-9-144 (SEQ ID NO: 3) was examined for the ability to recognize target cells that express MYBL2 and HLA-A*0201 molecule. […] COS7 cells transfected with either full length of MYBL2 or HLA-A* 0201 were prepared as the controls.

Entries after “also recorded” stand apart in the source; their conditions may differ. Ends that are not written are not given here.

Turning to RIICEAHKV [MYBL2-A02-9-144, RIICEAHKV], the “IFN-gamma production of CTLs stimulated with peptide (ELISPOT)” value with peptide-pulsed T2 cells was “potent IFN-gamma production”. Besides, the “IFN-gamma production of CTL clone (ELISA)” value in assay [1] (CTL clone established by limiting dilution, target cells pulsed with peptide vs not pulsed) is given as “potent IFN-gamma production”. Also, the “IFN-gamma production of CTL line (ELISA)” value in assay [1] (CTL line from well #8, target cells pulsed with peptide vs without peptide pulse) is “potent IFN-gamma production”. Besides, the “Specific CTL activity of CTL clone against COS7 cells expressing both MYBL2 and HLA-A*0201” value in assay [2] (COS7 transfected with both full length MYBL2 and HLA-A*0201) is “potent CTL activity; also recorded: specific CTL activity”. In addition, the “Specific CTL activity of CTL clone against control COS7 cells” value in assay [2] (COS7 transfected with either full length MYBL2 or HLA-A*0201 alone) is “no significant specific CTL activity was detected”.
On to VLPPRQPSA [MYBL2-A02-9-355, VLPPRQPSA], for which, in the assay with peptide-pulsed T2 cells, the “IFN-gamma production of CTLs stimulated with peptide (ELISPOT)” value is on record as “specific IFN-gamma production was not observed; also recorded: no specific IFN-gamma production was detected”.

The record behind these values is US20120328638A1, “MYBL2 PEPTIDES AND VACCINES CONTAINING THE SAME” (Onco Therapy Science, Inc., priority 2009, published 2012).
